Laboratory results from patent US10703779B2, “Oxadiazole cyclic peptides” (THE GOVERNING COUNCIL OF THE UNIVERSITY OF TORONTO, priority 2015, dated 2020).
Values joined by “and” are separate entries in the source; they are usually repeats but may differ in a detail not shown here. Equal entries are not always repeated. Where two headings read alike, the source gives them in different places.

Tests used:
[1] = multicomponent bond
[2] = passive artificial membrane permeability (PAMPA) assay; assay type: in vitro ADME; settings: FIG. 10, oxadiazole-containing macrocycles (entries 1-7) compared with homodetic counterparts (entries 8-12)
Excerpt: Passive membrane permeability is an important property for the development of new therapeutics. […] Using this analysis method a −log Pe value <6.0 is indicitive of a passively membrane permeable compound, while a −log Pe>6.0 is indicative of a poorly permeable or non-permeable compound. […] (entry 12).

[3] = multicomponent bond; 18-membered ring; propionaldehyde/(N-isocyanimino)triphenylphosphorane; 25.0 °C
[4] = 18-membered ring, propionaldehyde/(N-isocyanimino)triphenylphosphorane, DCE/MeCN 1:1, 25.0 mM, 50.0 °C, 2 steps
[5] = 21-membered ring, propionaldehyde/(N-isocyanimino)triphenylphosphorane, DCE/MeCN 1:1, 25.0 mM, 50.0 °C, 2 steps
[6] = 15-membered ring, propionaldehyde/(N-isocyanimino)triphenylphosphorane, DCE/MeCN 1:1, 25.0 mM, 50.0 °C
[7] = 21-membered ring, propionaldehyde/(N-isocyanimino)triphenylphosphorane, DCE/MeCN 1:1, 25.0 mM, 50.0 °C
[8] = 18-membered ring, phenylacetaldehyde/(N-isocyanimino)triphenylphosphorane, DCE/MeCN 1:1, 25.0 mM, 50.0 °C, 2 steps
[9] = 18-membered ring, propionaldehyde/(N-isocyanimino)triphenylphosphorane, DCE/MeCN 1:1, 25.0 mM, 50.0 °C
[10] = 18-membered ring, propionaldehyde/(N-isocyanimino)triphenylphosphorane, DCE/MeCN 1:1, 20.0 mM, 50.0 °C

## PDAWG
[1]; [4]
  ring closure, isolated yield: 22%

## PFLDA
[1]; 18-membered ring, acetone/(N-isocyanimino)triphenylphosphorane, DCE/MeCN 1:1 + acetone 30% v/v, 25.0 mM, 50.0 °C, 2 steps
  ring closure, isolated yield: 10%

## PRGDA
[1]; [4]
  ring closure, isolated yield: 70%

## PDAWYG
[1]; [5]
  ring closure, isolated yield: 28%

## PFLLF
[1]; 18-membered ring, propionaldehyde/(N-isocyanimino)triphenylphosphorane, DCE/MeCN 1:1, 16.7 mM, 50.0 °C
  ring closure, isolated yield: 25%

## PSarLGF
[1]; 18-membered ring, α-MIDA-borylaldehyde/(N-isocyanimino)triphenylphosphorane, DCE/MeCN 1:1, 25.0 mM, 50.0 °C
  ring closure, isolated yield: 28%

## PGRGDWA
[1]; 24-membered ring, propionaldehyde/(N-isocyanimino)triphenylphosphorane, DCE/MeCN 1:1, 25.0 mM, 50.0 °C, 2 steps
  ring closure, isolated yield: 22%

## PASWKG
[1]; [5]
  ring closure, isolated yield: 7%

## APLGK
[1]; [4]
  ring closure, isolated yield: 60%

## APLGS
[1]; [4]
  ring closure, isolated yield: 70%

## AGFA
[1]; 15-membered ring
  ring closure, isolated yield: 32%
[1]; [6]
  ring closure, isolated yield: 24%

## PGLGFA
[1]; [7]
  ring closure, isolated yield: 41%

## PLDFA
[1]; [4]
  ring closure, isolated yield: 52%

## PSLYG
[1]; [8]
  ring closure, isolated yield: 22%

## PWASG
[1]; [4]
  ring closure, isolated yield: 28%

## ALFA
[1]; [6]
  ring closure, isolated yield: 20%

## APLGA
[1]; [9]
  ring closure, isolated yield: 15%

## PGLAF
[1]; [10]
  ring closure, isolated yield: 23%

## PALAF
[1]; [10]
  ring closure, isolated yield: 20%

## PFDLA
[1]; [4]
  ring closure, isolated yield: 45%

## PAFA
[1]; [6]
  ring closure, isolated yield: 23%

## PALGF
[1]; [10]
  ring closure, isolated yield: 25%

## GPLGA
[1]; 18-membered ring
  ring closure, isolated yield: 13% and 25%
[1]; [9]
  ring closure, isolated yield: 20%

## cyclo(PFLLFA)
[2]
  passive membrane permeability (result in words): single exception

## PGLGF
[3]
  ring closure, conversion: 100%
[1]; 18-membered ring
  ring closure, isolated yield: 32%
[1]; 18-membered ring, phenylacetaldehyde/(N-isocyanimino)triphenylphosphorane, DCE/MeCN 1:1, 25.0 mM, 50.0 °C
  ring closure, isolated yield: 29%
[1]; 18-membered ring, propionaldehyde/(N-isocyanimino)triphenylphosphorane, DCE/MeCN 1:1, 50.0 mM, 25.0 °C
  ring closure, isolated yield: 68%

## PSLYA
[1]; [4]
  ring closure, isolated yield: 24%

## PSWAG
[1]; [8]
  ring closure, isolated yield: 26%

## PSarLGFA
[1]; [7]
  ring closure, isolated yield: 42%
